Experimental data as given in patent US8697739B2, “Bicyclic acetyl-CoA carboxylase inhibitors and uses thereof” (Novartis AG, priority 2010, dated 2014).

Biological target: T1, human acetyl-CoA carboxylase 2 (ACC2) (Homo sapiens, UniProt O00763)
T1 construct: The cDNA encoding amino acids 144 to 2458 of human acetyl-CoA carboxylase 2; made in house; host or cells: Sf9 insect cells (baculovirus, pFastBac1)
Experiment: Acetyl-CoA carboxylase enzyme assay (malonyl-CoA formation by LC/MS/MS)
Assay type: biochemical
Settings: recombinant human ACC2 (aa 144-2458); read-out: IC50 ACC2
Excerpt: The cDNA encoding amino acids 144 to 2458 of human acetyl-CoA carboxylase 2 (ACC2, GenBank Accession #NM_001093) was cloned into the SalI and NotI sites of pFastBac1 (Invitrogen; Carlsbad, Calif.). The resulting plasmid was used to generate a recombinant ACC2 baculovirus that was amplified and titered according to the protocols in the Bac-to-Bac baculovirus expression system manual (Invitrogen). The titered virus was used to infect Sf9 cells grown in Ex-Cell 420 serum-free medium (JRH Biosciences; Lenexa, Kans.). At 48 hours post-infection, the cells were harvested and stored at −80° C. until purification. ACC2 was purified using ammonium sulfate precipitation and anion exchange chromatography.
The enzymatic assay was run as follows: 30 μL of reaction buffer (100 mM HEPES pH 7.5, 20 mM MgCl2, 20 mM potassium citrate, 2 mM DTT) was added to a 384-well microtiter plate followed by 2 μL of the test compound (or 100% DMSO control). ACC2 protein (10 μL of a 50 nM working solution) was added to plate, which was incubated at room temperature for 15 minutes. A 30 μL addition of substrate solution (50 μM acetyl-CoA, 120 μM ATP, 2 mM KHCO3) was used to initiate the reactions which were quenched with 6% acetic acid (40 μL). ACC catalyzed malonyl-CoA formation was detected by LC/MS/MS using a Cohesive Technologies LX Series multiplex LC/MSIMS system configured with four binary pumps (Agilent Technologies; Palo Alto, Calif.), a dual arm autosampler (Leap Technologies; Cary, N.C.), and one Quattro Micro triple quadrupole mass spectrometer (Waters, Milford, Mass.), all run by Aria Software version 1.5 (Cohesive Technologies; Franklin, Mass.). Four samples were injected (20 μL) onto four Phenosphere NEXT C18 30×2 mm 5 μm columns (Phenomenex; Torrance, Calif.), eluted by four separate pumps, running identical gradients, through a column switching manifold with the one outlet fitted to the electrospray (ESI) source. Malonyl-CoA was eluted with 5 mM ammonium acetate, pH 4.5 (Buffer A) and 100% acetonitrile (Buffer B) via a step gradient. Argon was used as the collision gas and the following species were monitored via MRM detection: malonyl-CoA (853.8>346.9), internal standard (A: [^13C3]-malonyl-CoA, 857>350). The lower limit of detection is 0.3 uM for malonyl-CoA in this assay.

T1 sequence (O00763 144-2458): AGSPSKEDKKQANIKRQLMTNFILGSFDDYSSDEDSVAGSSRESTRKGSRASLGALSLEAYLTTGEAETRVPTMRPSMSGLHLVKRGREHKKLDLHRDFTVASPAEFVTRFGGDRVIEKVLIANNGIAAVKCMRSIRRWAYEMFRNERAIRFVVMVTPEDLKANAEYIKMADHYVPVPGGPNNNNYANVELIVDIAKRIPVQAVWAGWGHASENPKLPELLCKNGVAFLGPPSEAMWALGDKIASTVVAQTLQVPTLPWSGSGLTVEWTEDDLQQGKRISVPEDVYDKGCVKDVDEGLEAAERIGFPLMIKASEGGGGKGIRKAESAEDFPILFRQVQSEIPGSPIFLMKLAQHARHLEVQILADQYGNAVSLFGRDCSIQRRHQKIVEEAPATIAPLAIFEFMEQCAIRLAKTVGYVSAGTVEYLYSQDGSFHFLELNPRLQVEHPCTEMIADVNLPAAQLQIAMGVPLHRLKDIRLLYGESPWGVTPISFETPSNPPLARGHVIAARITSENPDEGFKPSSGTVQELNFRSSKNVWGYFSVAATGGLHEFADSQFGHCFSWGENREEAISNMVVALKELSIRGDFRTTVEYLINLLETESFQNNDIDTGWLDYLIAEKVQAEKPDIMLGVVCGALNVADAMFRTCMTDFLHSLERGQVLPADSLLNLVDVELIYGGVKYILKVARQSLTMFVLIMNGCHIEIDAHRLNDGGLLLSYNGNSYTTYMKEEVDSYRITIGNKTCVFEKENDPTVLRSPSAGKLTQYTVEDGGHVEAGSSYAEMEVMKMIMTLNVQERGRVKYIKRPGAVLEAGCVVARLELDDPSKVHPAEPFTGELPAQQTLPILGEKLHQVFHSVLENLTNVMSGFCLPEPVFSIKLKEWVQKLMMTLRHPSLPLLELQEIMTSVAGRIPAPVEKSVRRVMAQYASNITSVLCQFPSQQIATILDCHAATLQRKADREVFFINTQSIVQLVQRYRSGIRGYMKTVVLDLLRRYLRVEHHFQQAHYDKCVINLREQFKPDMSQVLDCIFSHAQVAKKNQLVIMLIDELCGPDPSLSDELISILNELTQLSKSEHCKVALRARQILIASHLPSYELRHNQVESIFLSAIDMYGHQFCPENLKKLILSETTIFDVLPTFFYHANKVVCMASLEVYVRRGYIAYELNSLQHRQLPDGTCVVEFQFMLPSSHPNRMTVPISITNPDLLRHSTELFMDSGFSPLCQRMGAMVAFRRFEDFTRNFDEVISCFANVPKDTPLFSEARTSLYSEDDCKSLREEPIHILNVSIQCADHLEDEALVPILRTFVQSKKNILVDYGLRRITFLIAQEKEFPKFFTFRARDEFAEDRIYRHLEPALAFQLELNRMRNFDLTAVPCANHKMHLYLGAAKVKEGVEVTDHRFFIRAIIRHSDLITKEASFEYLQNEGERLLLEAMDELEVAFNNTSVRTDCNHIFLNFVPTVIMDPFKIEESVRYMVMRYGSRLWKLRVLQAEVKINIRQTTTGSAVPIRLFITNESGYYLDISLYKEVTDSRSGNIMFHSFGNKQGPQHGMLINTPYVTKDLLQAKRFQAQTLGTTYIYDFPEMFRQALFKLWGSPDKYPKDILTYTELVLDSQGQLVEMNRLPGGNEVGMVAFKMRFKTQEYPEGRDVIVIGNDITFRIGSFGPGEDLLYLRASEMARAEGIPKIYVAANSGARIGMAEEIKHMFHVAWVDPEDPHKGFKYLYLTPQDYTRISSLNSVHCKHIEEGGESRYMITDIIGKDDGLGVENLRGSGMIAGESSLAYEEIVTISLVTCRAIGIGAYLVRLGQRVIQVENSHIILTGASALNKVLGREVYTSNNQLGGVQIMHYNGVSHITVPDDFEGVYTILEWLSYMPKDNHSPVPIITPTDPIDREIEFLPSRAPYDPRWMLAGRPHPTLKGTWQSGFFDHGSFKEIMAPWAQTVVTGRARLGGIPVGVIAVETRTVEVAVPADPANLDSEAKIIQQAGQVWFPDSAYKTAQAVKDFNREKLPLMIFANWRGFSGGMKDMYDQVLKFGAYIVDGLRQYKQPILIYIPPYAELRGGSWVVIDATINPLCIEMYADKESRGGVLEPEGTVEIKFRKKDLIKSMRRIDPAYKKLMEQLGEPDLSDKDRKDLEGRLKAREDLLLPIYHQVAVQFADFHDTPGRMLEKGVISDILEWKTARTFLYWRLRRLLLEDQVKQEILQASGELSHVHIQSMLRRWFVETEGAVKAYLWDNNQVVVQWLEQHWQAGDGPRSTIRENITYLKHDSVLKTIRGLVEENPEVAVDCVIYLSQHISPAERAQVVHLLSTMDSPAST

| SMILES | IC50 |
| --- | --- |
| CCOC(=O)c1cccc(-c2nc3ccc(S(=O)(=O)N[C@H]4CC[C@H](C(=O)N[C@H](C)c5ccccc5)CC4)cc3[nH]2)c1 [Example 2, ethyl 3-(6-(N-((1R,4r)-4-((R)-1-phenylethylcarbamoyl)cyclohexyl)sulfamoyl)-1H-benzo[d]imidazol-2-yl)benzoate] | 19 nM |
| C[C@@H](NC(=O)[C@H]1CC[C@H](NS(=O)(=O)c2ccc3[nH]c([C@@H]4CCCN4)nc3c2)CC1)c1ccc(F)cc1 [Example 3, (1r,4R)—N—((R)-1-(4-fluorophenyl)ethyl)-4-(2-((S)-pyrrolidin-2-yl)-1H-benzo[d]imidazole-5-sulfonamido)cyclohexanecarboxamide] | 507 nM |
| Cc1nc2cc(S(=O)(=O)N[C@H]3CC[C@H](C(=O)N[C@H](C)c4ccc(F)cc4)CC3)ccc2n1C [Example 5, (1r,4R)-4-(1,2-dimethyl-1H-benzo[d]imidazole-5-sulfonamido)-N—((R)-1-(4-fluorophenyl)ethyl)cyclohexanecarboxamide] | 244 nM |
| C[C@@H](NC(=O)[C@H]1CC[C@H](NS(=O)(=O)c2ccc3nc(C4CCOCC4)[nH]c3c2)CC1)c1ccc(F)cc1 [Example 6, (1r,4R)—N—((R)-1-(4-fluorophenyl)ethyl)-4-(2-(tetrahydro-2H-pyran-4-yl)-1H-benzo[d]imidazole-6-sulfonamido)cyclohexanecarboxamide] | 156 nM |
| CC(C)N(C)C(=O)[C@H]1CC[C@H](NS(=O)(=O)c2ccc3[nH]c(Nc4ccccc4)nc3c2)CC1 [Example 7, (1r,4r)-N-isopropyl-N-methyl-4-(2-(phenylamino)-1H-benzo[d]imidazole-5-sulfonamido)cyclohexanecarboxamide] | 71 nM |
| CC(=O)Nc1ccc(-c2nc3ccc(S(=O)(=O)N[C@H]4CC[C@H](C(=O)OC(C)C)CC4)cc3[nH]2)cc1 [Example 8, (1r,4r)-isopropyl 4-(2-(4-acetamidophenyl)-1H-benzo[d]imidazole-5-sulfonamido)cyclohexanecarboxylate] | 45 nM |
| CN1CCN(c2ccc(Nc3nc4cc(S(=O)(=O)N[C@H]5CC[C@H](c6nnc(C(C)(C)C)o6)CC5)ccc4[nH]3)cc2)CC1 [Example 9, N-((1r,4r)-4-(5-tert-butyl-1,3,4-oxadiazol-2-yl)cyclohexyl)-2-(4-(4-methylpiperazin-1-yl)phenylamino)-1H-benzo[d]imidazole-5-sulfonamide] | 47 nM |
| CN1CCN(c2ccc(-c3nc4cc(S(=O)(=O)N[C@H]5CC[C@H](c6nnc(C(C)(C)C)o6)CC5)ccc4[nH]3)cc2)CC1 [Example 10, N-((1r,4r)-4-(5-tert-butyl-1,3,4-oxadiazol-2-yl)cyclohexyl)-2-(4-(4-methylpiperazin-1-yl)phenyl)-1H-benzo[d]imidazole-5-sulfonamide] | 115 nM |
| C[C@@H](NC(=O)[C@H]1CC[C@H](NS(=O)(=O)c2ccc3nc(-c4ccccc4)oc3c2)CC1)c1ccc(F)cc1 [Example 11, N—((R)-1-(4-fluorophenyl)ethyl)-4-(2-phenylbenzo[d]oxazole-6-sulfonamido)cyclohexanecarboxamide] | 48 nM |
| C[C@@H](NC(=O)[C@H]1CC[C@H](NS(=O)(=O)c2ccc3c(ccn3C)c2)CC1)c1ccc(F)cc1 [Example 12, (1r,4R)—N—((R)-1-(4-fluorophenyl)ethyl)-4-(1-methyl-1H-indole-5-sulfonamido)cyclohexanecarboxamide] | 55 nM |
| C[C@@H](NC(=O)[C@H]1CC[C@H](NS(=O)(=O)c2ccc3[nH]c(-c4ccccc4)cc3c2)CC1)c1ccccc1 [Example 13, (1r,4R)-4-(2-phenyl-1H-indole-5-sulfonamido)-N—((R)-1-phenylethyl)cyclohexanecarboxamide] | 65 nM |
| C[C@@H](NC(=O)[C@H]1CC[C@H](NS(=O)(=O)c2ccc3[nH]ccc3c2)CC1)c1ccc(F)cc1 [Example 16, (1r,4R)—N—((R)-1-(4-fluorophenyl)ethyl)-4-(1H-indole-5-sulfonamido)cyclohexanecarboxamide] | 51 nM |
| Cc1cn(C)c2ncc(S(=O)(=O)N[C@H]3CC[C@H](C(=O)N[C@H](C)c4ccc(F)cc4)CC3)cc12 [Example 17] | 65 nM |
| C[C@@H](NC(=O)[C@H]1CC[C@H](NS(=O)(=O)c2ccc3cc(-c4ccccc4)[nH]c3c2)CC1)c1ccccn1 [Example 19, (1r,4R)-4-(2-phenyl-1H-indole-6-sulfonamido)-N—((R)-1-(pyridin-2-yl)ethyl)cyclohexanecarboxamide] | 56 nM |
| CC(C)[C@H]1COCCN1C(=O)[C@H]1CC[C@H](NS(=O)(=O)c2ccc3cc(C4CC4)n(C)c3c2)CC1 [Example 22, 2-cyclopropyl-N-((1S,4r)-4-((S)-3-isopropylmorpholine-4-carbonyl)cyclohexyl)-1-methyl-1H-indole-6-sulfonamide] | 70 nM |
| Cn1c(C2CC2)c(C#N)c2ccc(S(=O)(=O)N[C@H]3CC[C@H](C(=O)N4CCOCC4)CC3)cc21 [Example 23, 3-cyano-2-cyclopropyl-1-methyl-N-((1r,4r)-4-(morpholine-4-carbonyl)cyclohexyl)-1H-indole-6-sulfonamide] | 150 nM |
| Cn1c(C2CC2)cc2ccc(S(=O)(=O)N[C@H]3CC[C@](C)(C(=O)N4CCOCC4)CC3)cc21 [Example 24, 2-cyclopropyl-1-methyl-N-((1r,4r)-4-methyl-4-(morpholine-4-carbonyl)cyclohexyl)-1H-indole-6-sulfonamide] | 230 nM |
| C[C@@H](NC(=O)[C@H]1CC[C@H](NS(=O)(=O)c2ccc3c(Cl)c[nH]c3c2)CC1)c1ccc(F)cc1 [Example 26, (1r,4R)-4-(3-chloro-1H-indole-6-sulfonamido)-N—((R)-1-(4-fluorophenyl)ethyl)cyclohexanecarboxamide] | 20 nM |

These reach a lower IC50. Values come first.

| IC50 | SMILES |
| --- | --- |
| 13 nM | C[C@@H](NC(=O)[C@H]1CC[C@H](NS(=O)(=O)c2ccc3[nH]c(-c4ccccc4)nc3c2)CC1)c1ccccc1 [Example 1, (1r,4R)-4-(2-phenyl-1H-benzo[d]imidazole-5-sulfonamido)-N—((R)-1-phenylethyl)cyclohexanecarboxamide] |
| 13 nM | C[C@@H](NC(=O)[C@H]1CC[C@H](NS(=O)(=O)c2ccc3c(c2)nc(-c2ccccc2)n3C)CC1)c1ccc(F)cc1 [Example 4, (1r,4R)—N—((R)-1-(4-fluorophenyl)ethyl)-4-(1-methyl-2-phenyl-1H-benzo[d]imidazole-5-sulfonamido)cyclohexanecarboxamide] |
| 10 nM | C[C@@H](NC(=O)[C@H]1CC[C@H](NS(=O)(=O)c2ccc3c(c2)cc(-c2ccccc2)n3C)CC1)c1ccc(F)cc1 [Example 14, (1r,4R)—N—((R)-1-(4-fluorophenyl)ethyl)-4-(1-methyl-2-phenyl-1H-indole-5-sulfonamido)cyclohexanecarboxamide] |
| < 10 nM | Cn1c(-c2ccccc2)cc2cc(S(=O)(=O)N[C@H]3CC[C@H](C(=O)N[C@@H](c4ccccc4)C(C)(C)O)CC3)ccc21 [Example 15, (1r,4S)—N—((S)-2-hydroxy-2-methyl-1-phenylpropyl)-4-(1-methyl-2-phenyl-1H-indole-5-sulfonamido)cyclohexanecarboxamide] |
| 11 nM | C[C@@H](NC(=O)[C@H]1CC[C@H](NS(=O)(=O)c2ccc3cc(-c4ccccc4)[nH]c3c2)CC1)c1ccc(F)cc1 [Example 18, (1r,4R)—N—((R)-1-(4-fluorophenyl)ethyl)-4-(2-phenyl-1H-indole-6-sulfonamido)cyclohexanecarboxamide] |
| < 10 nM | C[C@@H](NC(=O)[C@H]1CC[C@H](NS(=O)(=O)c2ccc3cc(-c4ccccc4)n(C)c3c2)CC1)c1ccc(F)cc1 [Example 20, (1r,4R)—N—((R)-1-(4-fluorophenyl)ethyl)-4-(1-methyl-2-phenyl-1H-indole-6-sulfonamido)cyclohexanecarboxamide] |
| < 10 nM | Cn1c(-c2ccccc2)c(Cl)c2ccc(S(=O)(=O)N[C@H]3CC[C@H](C(=O)N4CCN[C@H](C(F)(F)F)C4)CC3)cc21 [Example 21, 3-chloro-1-methyl-2-phenyl-N-((1S,4r)-4-((S)-3-(trifluoromethyl)piperazine-1-carbonyl)cyclohexyl)-1H-indole-6-sulfonamide] |
| < 10 nM | CC(C)[C@H](N)C(=O)OCc1ccc(-c2cc3ccc(S(=O)(=O)N[C@H]4CC[C@H](C(=O)N[C@H](C)c5ccc(F)cc5)CC4)cc3[nH]2)cc1 [Example 27, (S)-4-(6-(N-((1R,4r)-4-((R)-1-(4-fluorophenyl)ethylcarbamoyl)cyclohexyl)sulfamoyl)-1H-indol-2-yl)benzyl 2-amino-3-methylbutanoate] |
